Laboratory results reported in patent US8940765B2, “N-linked quinolineamide M1 receptor positive allosteric modulators” (Merck Sharp & Dohme Corp., priority 2011, dated 2015).

The compounds below were run against T1, acetylcholine muscarinic M1 receptor (Homo sapiens, UniProt P11229) (assay: muscarinic FLIPR assay: intracellular calcium in CHOnfat/hM1 cells, potentiation of EC20 acetylcholine). Conditions: FLIPR Ca2+, 4 min preincubation, then EC20 acetylcholine (3 nM final), read-out: IP Value (inflection point).
T1 construct: expressed in transfected cells; host or cells: CHOnfat cells (CHO with NFAT reporter background) stably expressing hM1, Geneticin selection
T1 sequence (P11229 1-460): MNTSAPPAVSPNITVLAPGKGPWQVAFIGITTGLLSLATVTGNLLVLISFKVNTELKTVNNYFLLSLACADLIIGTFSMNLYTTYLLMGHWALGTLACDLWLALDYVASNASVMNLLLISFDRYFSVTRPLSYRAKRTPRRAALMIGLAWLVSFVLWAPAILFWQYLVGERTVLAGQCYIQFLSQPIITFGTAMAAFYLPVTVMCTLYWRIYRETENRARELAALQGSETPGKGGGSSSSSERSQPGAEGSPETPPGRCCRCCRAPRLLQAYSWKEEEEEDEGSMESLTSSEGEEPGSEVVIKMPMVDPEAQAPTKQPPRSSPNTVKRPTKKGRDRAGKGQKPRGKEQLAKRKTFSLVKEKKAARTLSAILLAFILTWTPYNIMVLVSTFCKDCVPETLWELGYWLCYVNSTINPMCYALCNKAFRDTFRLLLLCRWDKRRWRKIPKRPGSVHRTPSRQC
Format: cell-based
Protocol: The assay studies the effect of one or several concentrations of test compounds on basal or acetylcholine-stimulated Ca^2+ levels using FLIPR.
Compounds are prepared and subjected to a preincubation period of 4 min. Thereafter, a single EC20 concentration of acetylcholine is added to each well (3 nM final). The intracellular Ca^2+ level of each sample is measured and compared to an acetylcholine control to determine any modulatory activity.
Cells: CHOnfat/hM1, hM2, hM3 or hM4 cells are plated 24 hr before the assay at a density of 18,000 cells/well (100 μL) in a 384 well plate. CHOnfat/hM1 and CHOnfat/hM3 Growth Medium: 90% DMEM (Hi Glucose); 10% HI FBS; 2 mM L-glutamine; 0.1 mM NEAA; Pen-Strep; and 1 mg/ml Geneticin, are added. For M2Gqi5CHOnfat and M4Gqi5CHOnfat cells, an additional 600 ug/ml hygromycin is added.
Equipment: 384 well plate, 120 μL addition plate; 96-well Whatman 2 ml Uniplate Incubator, 37° C., 5% CO2; Skatron EMBLA-384 Plate Washer; Multimek Pipetting System; Genesis Freedom 200 System; Mosquito System; Temo Nanoliter Pipetting System; and FLIPR384 Fluorometric Imaging Plate Reader System are used.
Buffers. Assay Buffer: Hanks Balanced Salt Solution, with 20 mM Hepes, 2.5 mM Probenecid (Sigma P-8761) first dissolved in 1 N NaOH, 1% Bovine Serum Albumin (Sigma A-9647). Dye Loading Buffer: Assay Buffer plus 1% Fetal Bovine Serum and Fluo-4AM/Pluronic Acid Mixture. 2 mM Fluo-4AM ester stock in DMSO (Molecular Probes F-14202) Concentration of 2 μM in buffer for a final concentration of 1 μM in Assay. 20% Pluronic Acid Solution stock, with concentration of 0.04% in Buffer, 0.02% in Assay.
65 μl, of 2 mM Fluo-4AM are mixed with 130 μL of 20% Pluronic Acid. The resulting solution and 650 μL FBS is added to the assay buffer for a total volume of 65 mL. Positive Controls: 4-Br-A23187: 10 mM in DMSO; final concentration 10 μM. Acetylcholine: 10 mM in water, working stock at both 20 μM and 30 μM in assay buffer, final concentration of 10 μM. This is used to check the maximum stimulation of the CHOK1/hM1 cells. 20 μM (2×) acetylcholine is added in the preincubation part of the assay, and the 30 μM (3×) stock is added in the second part. (EC20)Acetylcholine: 10 mM in water, working stock of 9 nM (3×), and final concentration in assay is 3 nM. This is used after the preincubation with test compounds. Addition of the EC20 Acetylcholine to each well with a test compound will ascertain any modulator activity. 24 wells contain 3 nM Acetylcholine alone as a control.
Determining Activity of Putative Compounds:
Screening Plate: Compounds are titrated in 96-well plates (columns 2-11), 100% DMSO, started at a concentration of 15 mM (150× stock concentration), and 3-fold serial dilutions using Genesis Freedom200 System. Four 96-well plates are combined into a 384-well plate using Mosquito Nanoliter Pipetting System by transferring 1 μl of serial diluted compounds to each well, and 1 mM acetylcholine (100× stock concentration) were added as a control. Using Temo, 49 μl assay buffer is added to each well of the 384-well plate right before assay.
In a 96-well Whatman 2 ml Uniplate, 9 nM Acetylcholine (3×) is pipetted into wells corresponding to the screening compounds, and into control wells. The 30 μM acetylcholine control (3×) is added into control wells, and the 3× agonist plate is transferred into a 384 well plate.
Cells are washed three times with 100 μL of buffer, leaving 30 μL of buffer in each well. Using Multimek, 30 μl, of Dye Loading Buffer is added into each well and incubated at 37° C., 5% CO2 for up to one hr.
After […], the cells are washed three times with 100 μL of buffer, leaving 30 μL of buffer in each well. The cell plate, screening plate, and agonist addition plates are placed on the platform in the FLIPR and the door closed. A signal test to check background fluorescence and basal fluorescence signal is performed. Laser intensity is adjusted if necessary. […]
Compound `N#CC1(c2ccccn2)CCN(Cc2cc(C(=O)N[C@H]3CCCC[C@@H]3O)nc3ccccc23)CC1` [Example 1, 4-[(4-cyano-4-pyridin-2-ylpiperidin-1-yl)methyl]-N-[(1S,2S)-2-hydroxycyclohexyl]quinoline-2-carboxamide] has an EC50 of 54 nM.
`Cn1cc(N2CCN(Cc3cc(C(=O)N[C@H]4CCCC[C@@H]4O)nc4ccccc34)CC2)cn1` [Example 2, N-[(1S,2S)-2-hydroxycyclohexyl]-4-{[4-(1-methyl-1H-pyrazol-4-yl)piperazin-1-yl]methyl}quinoline-2-carboxamide] showed an EC50 of 369 nM.
Compound `Cc1ccnc(C2(C#N)CCN(Cc3cc(C(=O)N[C@H]4CCCC[C@@H]4O)nc4ccccc34)CC2)c1` [Example 3, 4-{[4-cyano-4-(4-methylpyridin-2-yl)piperidin-1-yl]methyl}-N-[(1S,2S)-2-hydroxycyclohexyl]quinoline-2-carboxamide] has an EC50 of 20 nM.
For `N#CC1(c2ccccc2)CCN(Cc2cc(C(=O)N[C@H]3CCCC[C@@H]3O)nc3ccccc23)CC1` [Example 4, 4-[(4-cyano-4-phenylpiperidin-1-yl)methyl]-N-[(1S,2S)-2-hydroxycyclohexyl]quinoline-2-carboxamide], the EC50 was 325 nM.
`N#CC1(c2ccccc2F)CCN(Cc2cc(C(=O)N[C@H]3CCCC[C@@H]3O)nc3ccccc23)CC1` [Example 5, 4-{[4-cyano-4-(2-fluorophenyl)piperidin-1-yl]methyl}-N-[(1S,2S)-2-hydroxycyclohexyl]quinoline-2-carboxamide] showed an EC50 of 81 nM.
For `N#CC1(c2ccccc2Cl)CCN(Cc2cc(C(=O)N[C@H]3CCCC[C@@H]3O)nc3ccccc23)CC1` [Example 6, 4-{[4-(2-chlorophenyl)-4-cyanopiperidin-1-yl]methyl}-N-[(1S,2S)-2-hydroxycyclohexyl]quinoline-2-carboxamide], the EC50 was 117 nM.
Compound `Cc1ccccc1C1(C#N)CCN(Cc2cc(C(=O)N[C@H]3CCCC[C@@H]3O)nc3ccccc23)CC1` [Example 7, 4-{[4-cyano-4-(2-methylphenyl)piperidin-1-yl]methyl}-N-[(1S,2S)-2-hydroxycyclohexyl]quinoline-2-carboxamide] has an EC50 of 136 nM.
`Cc1ccnc(C2(C#N)CCN(Cc3cc(C(=O)N[C@H]4CCOC[C@@H]4O)nc4ccccc34)CC2)c1` [Example 8, 1,5-anhydro-3-{[(4-{[4-cyano-4-(4-methylpyridin-2-yl)piperidin-1-yl]methyl}quinolin-2-yl)carbonyl]amino}-2,3-dideoxy-L-threo-pentitol] gave an EC50 of 27 nM.
`N#CC1(c2cccnc2)CCN(Cc2cc(C(=O)N[C@H]3CCCC[C@@H]3O)nc3ccccc23)CC1` [Example 9, 4-[(4-cyano-4-pyridin-3-ylpiperidin-1-yl)methyl]-N-[(1S,2S)-2-hydroxycyclohexyl]quinoline-2-carboxamide] was tested, and the EC50 was 54 nM.
